# Measurements: US20030118514A1, “Compositions for inhalation” (Glaxo Wellcome Inc., priority 1998, published 2003)
# Read-outs that look alike come from different tables or passages of the source.
# Assays:
# [1] = Mass median diameter of salbutamol sulphate particles; type: physicochemical
# [2] = Fine particle fraction of salbutamol sulphate blended with Lactochem lactose (Example 7); type: physicochemical; details: after blending with Lactochem lactose
Substance,mass median diameter [1] [μm],fine particle fraction (<6.4 μm) [2] [% recovered dose],mass median diameter ([1]; listed as elongated crystals (needle shaped) of salbutamol sulphate) [μm]
salbutamol sulphate [micronised salbutamol sulphate],4.79,10.8,–
salbutamol sulphate [recrystallised salbutamol sulphate],–,22.8,5.49
